Here are results for two molecules from patent publication US12629363B2, “Prophylaxis and treatment of angioedema” (PHARVARIS GMBH, priority 2020, dated 2026).

Converted amounts (≈) assume the structure as drawn.

Series [1] deals with T1, cynomolgus monkey B2 receptor (Macaca fascicularis, UniProt A0A7N9CWN6).
T1 sequence (A0A7N9CWN6 1-391): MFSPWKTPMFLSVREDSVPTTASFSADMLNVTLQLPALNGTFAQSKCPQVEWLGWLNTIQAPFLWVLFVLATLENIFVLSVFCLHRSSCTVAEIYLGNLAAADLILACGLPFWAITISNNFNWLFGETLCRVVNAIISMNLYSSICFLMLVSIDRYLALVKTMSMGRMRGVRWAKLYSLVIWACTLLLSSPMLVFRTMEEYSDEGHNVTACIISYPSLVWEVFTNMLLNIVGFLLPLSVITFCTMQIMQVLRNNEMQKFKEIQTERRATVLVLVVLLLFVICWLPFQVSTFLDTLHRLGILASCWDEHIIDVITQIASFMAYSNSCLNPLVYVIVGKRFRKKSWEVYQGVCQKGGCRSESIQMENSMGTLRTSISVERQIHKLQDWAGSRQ
Nature of the series: Antagonist potency in cells expressing cynomolgus monkey B2 receptor. Type of series: cell-based. As to conditions: read-out: Kb value to antagonize BK activation. The text has this: (§1) The bradykinin B2 receptor is well known for its species selective pharmacology (Paquet et al., Br. J. Pharmacol. (126), 1083-1090, 1999 (DOI: 10.1038/sj.bjp.0702403); Burgess et al., Br. J. Pharmacol. (129), 77-86, 2000 (DOI: 10.1038/sj.bjp.0703012)). […] Pharmacol. 11:916; DOI: 10.3389/fphar.2020.00916.

The target of series [2] is T2, rat B2 receptor (Rattus norvegicus, UniProt P25023).
T2 construct: expressed in transfected cells
T2 sequence (P25023 1-396): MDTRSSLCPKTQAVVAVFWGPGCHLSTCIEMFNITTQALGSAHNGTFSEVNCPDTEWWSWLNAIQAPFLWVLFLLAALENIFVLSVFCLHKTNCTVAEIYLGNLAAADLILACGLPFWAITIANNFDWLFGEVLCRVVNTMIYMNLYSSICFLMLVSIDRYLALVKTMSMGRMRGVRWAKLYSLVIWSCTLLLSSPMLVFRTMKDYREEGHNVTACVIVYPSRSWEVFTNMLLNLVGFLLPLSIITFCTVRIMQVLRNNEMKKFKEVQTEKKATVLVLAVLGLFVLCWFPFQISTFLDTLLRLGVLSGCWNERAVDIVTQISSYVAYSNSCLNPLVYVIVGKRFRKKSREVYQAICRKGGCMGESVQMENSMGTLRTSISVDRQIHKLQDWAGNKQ
Nature of the series: Antagonist potency in cells expressing rat B2 receptor. Type of series: cell-based. Conditions: rat B2 receptor.
From the text: as §1

Series [3] addresses T3, mouse B2 receptor (Mus musculus, UniProt P32299).
T3 construct: expressed in transfected cells
T3 sequence (P32299 1-392): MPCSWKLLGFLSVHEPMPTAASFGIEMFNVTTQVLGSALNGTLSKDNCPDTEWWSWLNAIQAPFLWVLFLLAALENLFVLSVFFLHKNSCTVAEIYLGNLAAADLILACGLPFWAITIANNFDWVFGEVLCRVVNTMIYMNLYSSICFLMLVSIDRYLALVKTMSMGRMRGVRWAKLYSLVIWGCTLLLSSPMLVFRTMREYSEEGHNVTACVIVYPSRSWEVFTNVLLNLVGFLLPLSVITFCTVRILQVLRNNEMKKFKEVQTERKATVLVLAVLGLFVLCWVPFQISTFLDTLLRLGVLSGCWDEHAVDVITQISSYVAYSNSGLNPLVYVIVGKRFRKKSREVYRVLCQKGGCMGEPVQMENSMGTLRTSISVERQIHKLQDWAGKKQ
Nature of the series: Antagonist potency in cells expressing mouse B2 receptor. Type of series: cell-based. Conditions: mouse B2 receptor.
From the text: as §1

Series [4] has as its target T4, dog B2 receptor (Canis lupus familiaris, UniProt Q9BDQ4).
T4 construct: expressed in transfected cells
T4 sequence (Q9BDQ4 1-392): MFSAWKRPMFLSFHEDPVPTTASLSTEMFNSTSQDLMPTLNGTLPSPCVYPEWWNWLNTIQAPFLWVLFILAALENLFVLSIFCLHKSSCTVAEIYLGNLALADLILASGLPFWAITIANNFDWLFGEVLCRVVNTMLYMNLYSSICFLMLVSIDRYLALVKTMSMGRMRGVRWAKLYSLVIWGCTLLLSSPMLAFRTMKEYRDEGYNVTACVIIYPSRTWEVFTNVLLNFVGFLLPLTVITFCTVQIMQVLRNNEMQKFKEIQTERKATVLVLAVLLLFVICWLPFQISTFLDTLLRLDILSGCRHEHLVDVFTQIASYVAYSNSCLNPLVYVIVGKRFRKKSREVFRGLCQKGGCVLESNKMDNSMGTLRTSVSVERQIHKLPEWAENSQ
Nature of the series: Antagonist potency in cells expressing dog B2 receptor. As to conditions: dog B2 receptor. Type of series: cell-based.
From the text: as §1

Series [5] has as its system acute HAE attacks. As to conditions: cited from earlier work.
For series [6] the following is noted: in vivo; cited from earlier work.
Series [7] has as its target T5, BK B2 receptor (Homo sapiens, UniProt P30411).
T5 sequence (P30411 1-391): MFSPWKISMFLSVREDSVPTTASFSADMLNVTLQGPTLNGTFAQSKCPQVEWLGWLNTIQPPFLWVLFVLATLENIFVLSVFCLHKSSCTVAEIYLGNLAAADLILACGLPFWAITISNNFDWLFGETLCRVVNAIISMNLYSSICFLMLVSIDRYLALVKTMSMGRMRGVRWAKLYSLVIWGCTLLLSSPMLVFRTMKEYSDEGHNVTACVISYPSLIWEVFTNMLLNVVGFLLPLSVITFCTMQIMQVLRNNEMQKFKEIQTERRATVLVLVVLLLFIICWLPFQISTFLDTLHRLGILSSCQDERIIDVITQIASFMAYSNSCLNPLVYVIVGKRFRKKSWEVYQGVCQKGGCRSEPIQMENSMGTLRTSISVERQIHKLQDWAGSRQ
Conditions: cited from earlier work.

Series [8] can be described thus: Drug-drug interaction trial with itraconazole, PK (Example 5).
Description: Thirteen healthy subjects were enrolled and completed the study.
On Days 4 to 8, subjects received once daily oral doses of 200 mg itraconazole one hour before start of a standard meal.
Trough plasma concentrations of itraconazole were determined by taking predose plasma samples on Days 4-7, to document exposure to itraconazole.

As to `NC(N)=NCCC[C@@H](N)C(=O)N[C@@H](CCCN=C(N)N)C(=O)N1CCC[C@H]1C(=O)N1C[C@H](O)C[C@H]1C(=O)NCC(=O)N[C@@H](Cc1cccs1)C(=O)N[C@@H](CO)C(=O)N1Cc2ccccc2C[C@@H]1C(=O)N1[C@H](C(=O)N[C@@H](CCCN=C(N)N)C(=O)O)C[C@@H]2CCCC[C@@H]21` [icatibant], the Kb (in general, the affinity of an antagonist, worked out from how it opposes an agonist) in series [1] amounted to 4.06 nM. Further, the Kb in series [2] is 5.6 nM. In series [3], this molecule displayed a Kb of 4.4 nM. This molecule gave a Kb in series [4] of 30.7 nM. For the same molecule, the “time after which therapeutic response to an acute HAE attack wanes” value in series [5] (human, in vivo) was “approximately 6 hours”. The “onset of relief in acute HAE attacks” value in series [5] (placebo 19.8 h, Lumry et al. 2011) is listed as 2.0 h. Besides, the half-life – broadly, the time needed for the level to fall by half in the phase considered – in series [6] is listed as 1.4 h. Further, in series [7] (in vivo, sc), the “Time plasma level above EC85 at a 75% confidence level” value is 5.5 h; the “Time plasma level above EC85 at a 75% confidence level, DBP” value is listed as 5.5 h; the “Time plasma level above EC85 at a 75% confidence level, MAP” value is 5.5 h. In addition, in series [7] (in vivo), the “intrinsic PD potency at the K B2 receptor” value is reported as 8.9 nM and the “time plasma concentration above EC85 (85% effective) at 50% probability” value was 5.5 h. Further, in series [7] (plasma concentration, FDA Clinical Pharmacology Review Firazyr), the “EC85 (published, BK challenge)” value was 0.0538 µg/mL (≈ 0.0412 µM).
In the case of `CCC(C)n1ncn(-c2ccc(N3CCN(c4ccc(OCC5COC(Cn6cncn6)(c6ccc(Cl)cc6Cl)O5)cc4)CC3)cc2)c1=O` (stereo not drawn) [itraconazole], the “mean predose plasma concentration (Ctrough)” value in series [8] (Day 4, itraconazole 200 mg dosing) came out at 386 ± 82.2 ng/mL; in series [8] (Day 7, itraconazole 200 mg dosing), 597 ± 178 ng/mL.
